From patent publication US10221163B2 (priority 2015, dated 2019)
Where two headings read alike, the source gives them in different places.

Columns and labels:
[1] = target: IMP-1 (Serratia marcescens, UniProt P52699); assay: biochemical; format: biochemical; details: fluorescence assay, CCF2-FA substrate, 2 pM enzyme, 2 hours at 25° C.; read-out: IMP-1 IC50
Summary of the method: (§1)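 IC50 values derive from 4-parameter fits of percent inhibition against inhibitor concentration on semi-log axes. Activity was monitored by fluorescence with the CCF2-FA substrate after a 2-hour, 25° C incubation of compound, enzyme and substrate.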

[2] = target: NDM-1 (Klebsiella pneumoniae, UniProt C7C422); assay: biochemical; format: biochemical; details: fluorescence assay, CCF2-FA substrate, 1 pM enzyme, 2 hours at 25° C.; read-out: NDM-1 IC50
Chain of NDM-1 (C7C422 whole entry, looked up, species assumed): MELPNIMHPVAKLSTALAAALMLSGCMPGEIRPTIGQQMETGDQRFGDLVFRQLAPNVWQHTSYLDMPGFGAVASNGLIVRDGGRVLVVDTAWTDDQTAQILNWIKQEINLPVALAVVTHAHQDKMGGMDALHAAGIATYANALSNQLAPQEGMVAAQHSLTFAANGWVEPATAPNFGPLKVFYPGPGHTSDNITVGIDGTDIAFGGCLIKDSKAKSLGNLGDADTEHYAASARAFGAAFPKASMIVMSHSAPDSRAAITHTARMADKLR
Summary of the method: as §1

[3] = target: VIM-1 (Pseudomonas aeruginosa (strain ATCC 15692 / DSM 22644 / CIP 104116 / JCM 14847 / LMG 12228 / 1C / PRS 101 / PAO1), UniProt A0A0F7KYQ8); assay: biochemical; details: CCF2-FA substrate, 30 pM enzyme, 2 hours at 25° C.
Summary of the method: as §1

[4] = system: Escherichia coli expressing NDM-1 (CLB30005, CLB30016); format: cell-based; details: NDM-1 strain, with imipenem 1 μg/ml, 95% inhibition of growth
Summary of the method: (§2)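 Imipenem 1 μg/ml + inhibitor; MBL-expressing clinical strains in 1.1×CAMHB, inoculum from saline suspension diluted 1:100; 35° C, 22–24 h; absorbance read-out.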

[5] = system: Klebsiella pneumoniae expressing VIM-1 (IHMA599644); format: cell-based; details: VIM-1 strain IHMA599644, with imipenem 1 μg/ml, 95% inhibition of growth
Summary of the method: as §2

[6] = system: Serratia marcescens expressing IMP-1 (CL5741); format: cell-based; details: IMP-1 strain CL5741, with imipenem 1 μg/ml, 95% inhibition of growth
Summary of the method: as §2

[7] = system: Pseudomonas aeruginosa efflux+ (MB9798), IMP-1; format: cell-based; details: concentration restoring susceptibility to imipenem at 2 μg/mL in the presence of a class A, C, D serine β-lactamase inhibitor closely related to relebactam
Summary of the method: (§3)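 PAO1 pair, broth microdilution; fixed β-lactam (imipenem/ceftazidime) at ~CLSI breakpoint + fixed class A/C BLI for AmpC; serial MBLi titration; endpoint = MBLi conc. restoring susceptibility; MB9798:MB9799 ratio = efflux liability.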

[8] = system: Pseudomonas aeruginosa efflux− (MB9799), IMP-1; format: cell-based; details: concentration restoring susceptibility to imipenem at 2 μg/mL in the presence of a class A, C, D serine β-lactamase inhibitor closely related to relebactam
Summary of the method: as §3

[9] = system: Pseudomonas aeruginosa MB9798 vs MB9799; details: ratio MITC95 PA_9798/MITC95 PA_9799
Summary of the method: as §3

[10] = fluorescence assay, read-out: VIM-1 IC50

Chain of IMP-1 (P52699 whole entry, looked up, species assumed): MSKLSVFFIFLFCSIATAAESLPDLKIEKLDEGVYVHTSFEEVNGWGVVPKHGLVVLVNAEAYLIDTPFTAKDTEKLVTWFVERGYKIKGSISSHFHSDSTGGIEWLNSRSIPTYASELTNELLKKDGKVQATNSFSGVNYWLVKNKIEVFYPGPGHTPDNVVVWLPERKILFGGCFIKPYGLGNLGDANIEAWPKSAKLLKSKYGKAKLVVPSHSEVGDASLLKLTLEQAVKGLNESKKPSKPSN

Structure (SMILES) | IC50 [1] [nM] | IC50 [2] [nM] | IC50 [3, 10] [nM] | Escherichia coli MITC95 [4] [µM] | Klebsiella pneumoniae MITC95 [5] [µM] | Serratia marcescens MITC95 [6] [µM] | P. aeruginosa expressing IMP-1, efflux + (MB9798) MITC95 [7] [µM] | P. aeruginosa expressing IMP-1, efflux − (MB9799) MITC95 [8] [µM] | Efflux ratio [9] | IC50 ([3]; VIM-1 IC50, fluorescence assay) [nM]
NCCNS(=O)(=O)c1ccc(C2=CC(N)CCC2)c(-c2nn[nH]n2)c1S(N)(=O)=O (stereo not drawn) [Example 338, 5′-Amino-N4-(2-aminoethyl)-2-(2H-tetrazol-5-yl)-2′,3′,4′,5′-tetrahydro-[1,1′-biphenyl]-3,4-disulfonamide] | 91 | 37.6 | 6.42 | 1.563 | 1.563 | 1.563 | 6.25 | 1.563 | 4.00 | 
N[C@H]1C=C(c2ccc(S(=O)(=O)N[C@@H]3CCNC3)c(S(N)(=O)=O)c2-c2nn[nH]n2)CCC1 [Example 339, (R)-5′-amino-N4-((R)-pyrrolidin-3-yl)-2-(2H-tetrazol-5-yl)-2′,3′,4′,5′-tetrahydro-[1,1′-biphenyl]-3,4-disulfonamide] | 34.1 | 11.9 |  | 0.7813 | 0.7813 | 1.563 | 6.25 | 1.563 | 4.00 | 2.1
N[C@@H]1C=C(c2ccc(S(=O)(=O)N[C@@H]3CCNC3)c(S(N)(=O)=O)c2-c2nn[nH]n2)CCC1 [Example 340, (S)-5′-amino-N4-((R)-pyrrolidin-3-yl)-2-(2H-tetrazol-5-yl)-2′,3′,4′,5′-tetrahydro-[1,1′-biphenyl]-3,4-disulfonamide] | 46.7 | 6.29 |  | 0.3906 | 0.7813 | 1.563 | 6.25 | 1.563 | 4.00 | 2.89
NCCCNC(=O)c1cccc(-c2ccc(S(=O)(=O)NCCN)c(S(N)(=O)=O)c2-c2nn[nH]n2)c1 [Example 341, 4′-(N-(2-aminoethyl)sulfamoyl)-N-(3-aminopropyl)-3′-sulfamoyl-2′-(2H-tetrazol-5-yl)-[1,1′-biphenyl]-3-carboxamide] | 4.13 | 1.71 | 0.474 | 0.7813 | 3.125 | 1.563 | 1.563 | 0.7813 | 2.00 | 
NCCNS(=O)(=O)c1ccc(C2CCC[C@H](N)C2)c(-c2nn[nH]n2)c1S(N)(=O)=O (stereo partly drawn) [Example 342, 4-((3S)-3-aminocyclohexyl)-N1-(2-aminoethyl)-3-(2H-tetrazol-5-yl)benzene-1,2-disulfonamide] | 88.7 | 32.7 |  | 1.563 | 1.563 | 3.125 | 25 | 6.25 | 4.00 | 5.31
NCCNS(=O)(=O)c1ccc(-c2cccc3[nH]c(CN)nc23)c(-c2nn[nH]n2)c1S(N)(=O)=O [Example 343] | 1.37 | 0.195 | 0.207 | 0.7813 | 0.7813 | 0.7813 | 0.7813 | 0.7813 | 1.00 | 
NCCNS(=O)(=O)c1ccc(-c2cccc3sc(CN)nc23)c(-c2nn[nH]n2)c1S(N)(=O)=O [Example 345, N^1-(2-aminoethyl)-4-(2-(aminomethyl)benzo[d]thiazol-4-yl)-3-(2H -tetrazol-5-yl)benzene-1,2-disulfonamide] | 0.676 | 0.193 | 0.129 | 0.5859 | 0.7813 | 0.7813 | 0.7813 | 0.7813 | 1.00 | 
NCCNS(=O)(=O)c1ccc(-c2cccc(C(=O)NC[C@H](O)CN)c2)c(-c2nn[nH]n2)c1S(N)(=O)=O [Example 346] | 3.65 | 1.49 |  | 1.563 | 1.563 | 1.563 | 1.563 | 0.7813 | 2.00 | 0.467
NCCNS(=O)(=O)c1ccc(-c2ccc3ncn(CCN)c3c2)c(-c2nn[nH]n2)c1S(N)(=O)=O [Example 348, N^1-(2-aminoethyl)-4-(1-(2-aminoethyl)-1H-benzo[d]imidazol-6-yl)-3-(2H-tetrazol-5-yl)benzene-1,2-disulfonamide] | 3.33 | 1.47 | 0.536 | 1.563 | 1.563 | 1.563 | 3.125 | 0.7813 | 4.00 | 
NCCNS(=O)(=O)c1ccc(-c2cccc(NC[C@@H](N)CO)c2)c(-c2nn[nH]n2)c1S(N)(=O)=O [Example 349, (R)-3′-((2-amino-3-hydroxypropyl)amino)-N4-(2-aminoethyl)-2-(2H-tetrazol-5-yl)-[1,1′-biphenyl]-3,4-disulfonamide] | 5.65 | 1.62 | 0.433 | 1.563 | 1.563 | 1.563 | 1.563 | 0.7813 | 2.00 | 
NCCNS(=O)(=O)c1ccc(-c2cccc(NC[C@H](N)CO)c2)c(-c2nn[nH]n2)c1S(N)(=O)=O [Example 350, (S)-3′-((2-amino-3-hydroxypropyl)amino)-N4-(2-aminoethyl)-2-(2H-tetrazol-5-yl)-[1,1′-biphenyl]-3,4-disulfonamide] | 4.4 | 1.72 | 0.412 | 0.7813 | 0.7813 | 0.7813 | 0.7813 | 0.7813 | 1.00 | 
NCCNS(=O)(=O)c1ccc(-c2cccc(NC[C@H](O)CN)c2)c(-c2nn[nH]n2)c1S(N)(=O)=O [Example 351, (R)-3′-((3-amino-2-hydroxypropyl)amino)-N4-(2-aminoethyl)-2-(2H-tetrazol-5-yl)-[1,1′-biphenyl]-3,4-disulfonamide] | 3.55 | 1.36 |  | 0.7813 | 1.563 | 1.563 | 1.563 | 0.7813 | 2.00 | 0.453
NCCNS(=O)(=O)c1ccc(-c2cccc(NC[C@@H](O)CN)c2)c(-c2nn[nH]n2)c1S(N)(=O)=O [Example 352, (S)-3′-((3-amino-2-hydroxypropyl)amino)N4-(2-aminoethyl)-2-(2H-tetrazol-5-yl)-[1,1′-biphenyl]-3,4-disulfonamide] | 4.39 | 1.41 |  | 0.7813 | 1.563 | 1.563 | 1.563 | 0.7813 | 2.00 | 0.379
